Data: ChEMBL document CHEMBL1152728, “1-Amido-1-phenyl-3-piperidinylbutanes - CCR5 antagonists for the treatment of HIV. Part 1” (Bioorg Med Chem Lett, 2009)
Calls of active or inactive are those of the source. No cut-off for these calls is given here.

Columns and labels:
[1] = system: Human immunodeficiency virus 1; assay: microbe, parasite or virus in culture; conditions: Human immunodeficiency virus 1, Bal, PM1
Liver microsomes = assay: Metabolic stability in human liver microsomes assessed as clearance measured per mg of protein; assay type: ADME, Microsome
physchem [2] = conditions: buffer, pH 7.4
[3] = molecular target: Voltage-gated inwardly rectifying potassium channel KCNH2 (Homo sapiens, UniProt Q12809)
physchem [4] = assay: physchem
hERG (KCNH2) = hERG (KCNH2) (Homo sapiens, UniProt Q12809); assay: in vitro; conditions: HEK293 cells that express human ERG, probe [3H]dofetilide
[5] = system: Human immunodeficiency virus 1; conditions: Bal, PM1

Sequence of Voltage-gated inwardly rectifying potassium channel KCNH2 (Q12809 whole entry): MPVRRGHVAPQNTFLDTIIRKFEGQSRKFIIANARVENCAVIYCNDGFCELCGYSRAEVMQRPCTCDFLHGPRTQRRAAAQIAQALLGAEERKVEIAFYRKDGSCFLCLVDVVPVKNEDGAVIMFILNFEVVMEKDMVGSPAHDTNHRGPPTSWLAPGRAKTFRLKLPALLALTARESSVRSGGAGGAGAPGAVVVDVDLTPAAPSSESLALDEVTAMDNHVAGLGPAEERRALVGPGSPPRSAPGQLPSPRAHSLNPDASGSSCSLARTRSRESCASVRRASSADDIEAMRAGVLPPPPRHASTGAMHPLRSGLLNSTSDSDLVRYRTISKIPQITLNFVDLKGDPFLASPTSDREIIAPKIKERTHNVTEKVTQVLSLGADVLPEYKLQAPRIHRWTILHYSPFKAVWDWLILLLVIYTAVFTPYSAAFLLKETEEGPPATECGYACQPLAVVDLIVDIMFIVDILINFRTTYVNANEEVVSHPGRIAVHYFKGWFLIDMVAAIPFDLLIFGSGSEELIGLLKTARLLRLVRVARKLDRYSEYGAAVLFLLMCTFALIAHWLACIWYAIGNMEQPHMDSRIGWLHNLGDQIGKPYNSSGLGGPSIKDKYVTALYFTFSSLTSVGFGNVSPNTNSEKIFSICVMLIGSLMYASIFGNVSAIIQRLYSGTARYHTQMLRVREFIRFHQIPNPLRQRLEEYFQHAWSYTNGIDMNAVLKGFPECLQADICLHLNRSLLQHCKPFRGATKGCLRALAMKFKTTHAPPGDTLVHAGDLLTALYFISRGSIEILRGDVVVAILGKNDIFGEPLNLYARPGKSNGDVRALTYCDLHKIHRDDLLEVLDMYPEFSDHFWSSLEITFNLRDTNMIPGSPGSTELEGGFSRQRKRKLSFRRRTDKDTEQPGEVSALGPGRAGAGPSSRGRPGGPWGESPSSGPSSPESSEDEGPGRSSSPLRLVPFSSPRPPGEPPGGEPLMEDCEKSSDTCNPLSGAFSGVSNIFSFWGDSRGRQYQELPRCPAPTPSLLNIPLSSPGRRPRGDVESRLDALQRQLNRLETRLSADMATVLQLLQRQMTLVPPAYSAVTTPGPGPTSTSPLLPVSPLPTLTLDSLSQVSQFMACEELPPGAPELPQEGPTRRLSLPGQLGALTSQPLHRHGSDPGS
Sequence of hERG (KCNH2) (Q12809 whole entry): as above

| IC90 [1] [nM] | Stability (Liver microsomes) [µL/min] | logD (physchem [2]) | SMILES | also measured |
| --- | --- | --- | --- | --- |
| 1630 |  |  | CCN(C(=O)c1ccc(F)cc1)C1CCN(C(C)C[C@H](NC(=O)C2CCC2)c2ccccc2)CC1 (some centres undefined) |  |
|  | < 7 | 1.1 | CC(C[C@H](NC(=O)C1CCC1)c1ccccc1)N1CCC(c2nnc(CN(C)C)o2)CC1 (some centres undefined) |  |
| 0.236 |  |  | CCN(C(=O)NCc1ccc(Cl)c(Cl)c1)C1CCN(C(C)C[C@H](NC(=O)C2CCC2)c2ccccc2)CC1 (some centres undefined) |  |
|  | < 7 | 1.2 | Cc1nnc(C)n1C1CCN(C(C)C[C@H](NC(=O)C2CCC2)c2ccccc2)CC1 (some centres undefined) |  |
|  | 56 | 2.1 | Cc1noc(C2CCN(C(C)C[C@H](NC(=O)C3CCC3)c3ccccc3)CC2)n1 (some centres undefined) |  |
|  | 204 | 3.2 | CC(C)c1noc(C2CCN(C(C)C[C@H](NC(=O)C3CCC3)c3ccccc3)CC2)n1 (some centres undefined) |  |
|  | < 7 | 1.9 | Cc1nnc(C(C)C)n1C1CCN(C(C)C[C@H](NC(=O)C2CCC2)c2ccccc2)CC1 (some centres undefined) |  |
|  | 38 | 2.4 | CC(C[C@H](NC(=O)C1CCC1)c1ccccc1)N1CCC(c2[nH]ncc2-c2ccncc2)CC1 (some centres undefined) | IC50 [3]: 117 nM |
| 0.7 | 22 | 2 | Cc1nnc(C(C)C)n1[C@H]1C[C@H]2CC[C@@H](C1)N2CC[C@H](NC(=O)C1CCC(F)(F)CC1)c1ccccc1 [MARAVIROC] | pKa (physchem [4]): 7.7 |
|  | < 8 | 1.7 | Cc1nnc(C(C)C)n1C1CCN(CC[C@H](NC(=O)C2CCC(F)(F)CC2)c2ccccc2)CC1 | pKa (physchem [4]): 7.2; inhibition at 0.3 µM (hERG (KCNH2)): 0%; Activity [5]: inactive |
|  | < 7 | 1.3 | Cc1nnc(C2CCN(C(C)C[C@H](NC(=O)C3CCC3)c3ccccc3)CC2)o1 (some centres undefined) |  |
|  | 35 | 3.5 | CC(C[C@H](NC(=O)C1CCC1)c1ccccc1)N1CCC(n2cc(-c3ccccc3)[nH]c2=O)CC1 (some centres undefined) | IC50 [3]: 4.7 nM |
|  | 183 | 2.9 | CCN(C(=O)Cc1ccc(OC)cc1)[C@H]1C[C@H]2CC[C@@H](C1)N2CC[C@H](NC(=O)C1CCC1)c1ccccc1 | pKa (physchem [4]): 8.7 |
| 0.322 |  |  | CCN(C(=O)OCc1ccccc1)C1CCN(C(C)C[C@H](NC(=O)C2CCC2)c2ccccc2)CC1 (some centres undefined) |  |

| SMILES | IC90 [1] [nM] | Stability (Liver microsomes) [µL/min] | logD (physchem [2]) | also measured |
| --- | --- | --- | --- | --- |
| CCN(C(=O)Oc1ccc(F)cc1)C1CCN(C(C)C[C@H](NC(=O)C2CCC2)c2ccccc2)CC1 (some centres undefined) | 61.4 |  |  |  |
